Values quoted from earlier work as cited in paper PMC7687576 (In Vitro Cellular & Developmental Biology. Animal, 2020).

Legend:
CYP3A4 [1] = settings: EpiIntestinal tissues; ref Cui et al. [2020]
CYP3A4 [2] = settings: Caco-2 cultures; ref Cui et al. [2020]
EpiIntestinal tissues = settings: IL-6 5–20 ng/mL for 72 h; ref Simon et al. [2019]

Compound	amount of 1-hydroxymidazolam (CYP3A4-selective metabolite) detected (CYP3A4 [1])	amount of 1-hydroxymidazolam metabolite detected (CYP3A4 [2])	decrease in CYP450 activity level (EpiIntestinal tissues)	reduction of CYP450 mRNA expression (CYP2C19, CYP2C9, CYP3A4) (EpiIntestinal tissues)
Cc1ncc2n1-c1ccc(Cl)cc1C(c1ccccc1F)=NC2 [Midazolam]	substantial amount	negligible amount	–	–
IL-6: pro-inflammatory cytokine IL-6	–	–	20–75%	40–50%
